According to patent US20210115104A1, “AMYLIN ANALOGUES” (Zealand Pharma A/S, priority 2015, published 2021):
*1 amine or outer side, *2 acyl side, *3 side chain or, on linkers, in order; H or OH if unused. Where a SMILES comes first, the peptide text is derived from it. Bridges are numbered along the chain shown (N, C = ends). [ ]: non-standard residue; d: D form. The star is where a group is joined. C20 diacid = O=C(O)CCCCCCCCCCCCCCCCCCC(=O)*; γGlu = O=C(O)[C@H](CCC(=O)[*:2])N[*:1]; Hyp = O=C(O)[C@@H]1C[C@@H](O)CN1; NMeI = CC[C@H](C)[C@H](NC)C(=O)O; Sar = CNCC(=O)O

How the values were obtained:
[1] = molecular target: T1, human calcitonin receptor (hCTR2) (Homo sapiens, UniProt P30988); assay: hCTR2 cAMP assay (AlphaScreen) in COS7 cells; format: cell-based; details: cAMP induction, COS7 cells expressing hCTR2; Table 1; read-out: hCTR2 EC50
T1 construct: expressed in transfected cells
T1 sequence (P30988 25-474): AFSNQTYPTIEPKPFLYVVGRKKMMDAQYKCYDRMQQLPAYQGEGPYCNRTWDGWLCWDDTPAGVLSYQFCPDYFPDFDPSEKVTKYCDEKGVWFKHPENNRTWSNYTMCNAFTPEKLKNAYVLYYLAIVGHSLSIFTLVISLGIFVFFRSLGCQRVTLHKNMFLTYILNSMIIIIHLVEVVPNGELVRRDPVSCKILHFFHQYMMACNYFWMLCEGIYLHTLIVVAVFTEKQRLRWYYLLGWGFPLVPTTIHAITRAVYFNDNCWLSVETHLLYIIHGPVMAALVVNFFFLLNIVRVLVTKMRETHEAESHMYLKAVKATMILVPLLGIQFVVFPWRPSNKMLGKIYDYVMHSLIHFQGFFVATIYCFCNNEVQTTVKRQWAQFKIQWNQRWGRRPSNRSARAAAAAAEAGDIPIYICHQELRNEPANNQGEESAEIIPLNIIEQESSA
Method in brief: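 cAMP induction, read by AlphaScreen after lysis, gives EC50 values via 4PL curve fitting. Peptides were applied at rising concentrations for 15 min at 37 °C, with IBMX and 0.1% casein in HEPES-buffered Tyrode pH 7.4, to COS7 cells (no endogenous RAMPs) stably expressing human CTR2.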

[2] = molecular target: T2, human amylin receptor 3 (hAMYR3), hCTR2 co-expressed with hRAMP3 (Homo sapiens, UniProt O60896+P30988); assay: hAMYR3 cAMP assay (AlphaScreen) in COS7 cells; format: cell-based; details: cAMP induction, COS7 cells expressing hAMYR3; Table 1; read-out: hAMYR3 EC50
T2 construct: expressed in transfected cells
T2 sequence (P30988 25-474): T1 sequence (P30988 25-474)
T2 sequence (O60896 24-148 partner): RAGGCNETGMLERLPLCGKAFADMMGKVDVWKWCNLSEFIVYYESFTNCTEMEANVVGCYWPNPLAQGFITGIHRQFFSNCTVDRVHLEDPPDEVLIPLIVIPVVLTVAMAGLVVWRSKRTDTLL
Method in brief: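 EC50 values derive from 4PL curve fits of cAMP (AlphaScreen) in lysates of RAMP-naive COS7 cells stably carrying hCTR2 plus hRAMP3. Peptide dilution series were applied for 15 min at 37 °C in pH 7.4 Tyrode buffer containing 100 µM IBMX and 0.1% casein.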

| SMILES | EC50 [1] | EC50 [2] |
| --- | --- | --- |
| CC[C@H](C)[C@@H](C(=O)N[C@@H](CC(C)C)C(=O)N[C@@H](CO)C(=O)N[C@@H](CO)C(=O)N[C@H](C(=O)N[C@@H](CCC(=O)O)C(=O)N[C@H](C(=O)NCC(=O)N[C@@H](CO)C(=O)N[C@@H](CC(N)=O)C(=O)N[C@H](C(=O)N1C[C@H](O)C[C@H]1C(N)=O)[C@@H](C)O)C(C)C)[C@@H](C)O)N(C)C(=O)[C@H](C)NC(=O)CN(C)C(=O)[C@H](Cc1ccccc1)NC(=O)[C@H](CO)NC(=O)[C@H](CO)NC(=O)[C@H](CCCNC(=N)N)NC(=O)[C@H](CCC(N)=O)NC(=O)[C@H](CC(C)C)NC(=O)[C@H](Cc1ccccc1)NC(=O)[C@H](CC(=O)O)NC(=O)[C@H](C)NC(=O)[C@H](CC(C)C)NC(=O)[C@H](CCCNC(=N)N)NC(=O)[C@H](CCC(=O)O)NC(=O)[C@@H](NC(=O)[C@H](C)NC(=O)[C@@H]1CSSC[C@H](NC(=O)[C@H](CCCNC(=N)N)NC(=O)CC[C@H](NC(=O)CCCCCCCCCCCCCCCCCCC(=O)O)C(=O)O)C(=O)N[C@@H](CC(N)=O)C(=O)N[C@@H]([C@@H](C)O)C(=O)N[C@@H](C)C(=O)N[C@@H]([C@@H](C)O)C(=O)N1)[C@@H](C)O [Compound 68, [19CD]-isoGlu-R-C( )-NTAT-C( )-ATERLADFLQRSSF-Gly(Me)-A-Ile(Me)-LSSTEVGSNT-Hyp-NH2] ({C20 diacid-γGlu}-RCNTATCATERLADFLQRSSF[Sar]A[NMeI]LSSTEVGSNT[Hyp]-NH2; disulfide 2-7) | 320 pM | 290 pM |
| CC[C@H](C)[C@@H](C(=O)N[C@@H](CC(C)C)C(=O)N[C@@H](CO)C(=O)N[C@@H](CO)C(=O)N[C@H](C(=O)N[C@@H](CCC(=O)O)C(=O)N[C@H](C(=O)NCC(=O)N[C@@H](CO)C(=O)N[C@@H](CO)C(=O)N[C@H](C(=O)N1C[C@H](O)C[C@H]1C(N)=O)[C@@H](C)O)C(C)C)[C@@H](C)O)N(C)C(=O)[C@H](C)NC(=O)CN(C)C(=O)[C@H](Cc1ccccc1)NC(=O)[C@H](CO)NC(=O)[C@H](CO)NC(=O)[C@H](CCCNC(=N)N)NC(=O)[C@H](CCC(N)=O)NC(=O)[C@H](CC(C)C)NC(=O)[C@H](Cc1ccccc1)NC(=O)[C@H](Cc1c[nH]cn1)NC(=O)[C@H](C)NC(=O)[C@H](CC(C)C)NC(=O)[C@H](CCCNC(=N)N)NC(=O)[C@H](CCC(=O)O)NC(=O)[C@@H](NC(=O)[C@H](C)NC(=O)[C@@H]1CSSC[C@H](NC(=O)[C@H](CCCNC(=N)N)NC(=O)CC[C@H](NC(=O)CCCCCCCCCCCCCCCCCCC(=O)O)C(=O)O)C(=O)N2CCC[C@H]2C(=O)N[C@@H]([C@@H](C)O)C(=O)N[C@@H](C)C(=O)N[C@@H]([C@@H](C)O)C(=O)N1)[C@@H](C)O [Compound 70, [19CD]-isoGlu-R-C( )-PTAT-C( )-ATERLAHFLQRSSF-Gly(Me)-A-Ile(Me)-LSSTEVGSST-Hyp-NH2] ({C20 diacid-γGlu}-RCPTATCATERLAHFLQRSSF[Sar]A[NMeI]LSSTEVGSST[Hyp]-NH2; disulfide 2-7) | 350 pM | 360 pM |
| CC[C@H](C)[C@@H](C(=O)N[C@@H](CC(C)C)C(=O)N[C@@H](CO)C(=O)N[C@@H](CO)C(=O)N[C@H](C(=O)N[C@@H](CCC(=O)O)C(=O)N[C@H](C(=O)NCC(=O)N[C@@H](CO)C(=O)NCC(=O)N[C@H](C(=O)N1C[C@H](O)C[C@H]1C(N)=O)[C@@H](C)O)C(C)C)[C@@H](C)O)N(C)C(=O)[C@H](C)NC(=O)CN(C)C(=O)[C@H](Cc1ccccc1)NC(=O)[C@H](CO)NC(=O)[C@H](CO)NC(=O)[C@H](CCCNC(=N)N)NC(=O)[C@H](CCC(N)=O)NC(=O)[C@H](CC(C)C)NC(=O)[C@H](Cc1ccccc1)NC(=O)[C@H](Cc1c[nH]cn1)NC(=O)[C@H](C)NC(=O)[C@H](CC(C)C)NC(=O)[C@H](CCCNC(=N)N)NC(=O)[C@H](CCC(=O)O)NC(=O)[C@@H](NC(=O)[C@H](C)NC(=O)[C@@H]1CSSC[C@H](NC(=O)[C@H](CCCNC(=N)N)NC(=O)CC[C@H](NC(=O)CCCCCCCCCCCCCCCCCCC(=O)O)C(=O)O)C(=O)N2CCC[C@H]2C(=O)N[C@@H]([C@@H](C)O)C(=O)N[C@@H](C)C(=O)N[C@@H]([C@@H](C)O)C(=O)N1)[C@@H](C)O [Compound 72, [19CD]-isoGlu-R-C( )-PTAT-C( )-ATERLAHFLQRSSF-Gly(Me)-A-Ile(Me)-LSSTEVGSGT-Hyp-NH2] ({C20 diacid-γGlu}-RCPTATCATERLAHFLQRSSF[Sar]A[NMeI]LSSTEVGSGT[Hyp]-NH2; disulfide 2-7) | 350 pM | 270 pM |

Stronger by EC50 [1], values ahead:

| EC50 [1] | EC50 [2] | SMILES |
| --- | --- | --- |
| 190 pM | 300 pM | CC[C@H](C)[C@@H](C(=O)N[C@@H](CC(C)C)C(=O)N[C@@H](CO)C(=O)N[C@@H](CO)C(=O)N[C@H](C(=O)N[C@@H](CCC(=O)O)C(=O)N[C@H](C(=O)NCC(=O)N[C@@H](CO)C(=O)N[C@@H](CC(N)=O)C(=O)N[C@H](C(=O)N1CCC[C@H]1C(N)=O)[C@@H](C)O)C(C)C)[C@@H](C)O)N(C)C(=O)[C@H](C)NC(=O)CN(C)C(=O)[C@H](Cc1ccccc1)NC(=O)[C@H](CO)NC(=O)[C@H](CO)NC(=O)[C@H](CCCNC(=N)N)NC(=O)[C@H](CCC(N)=O)NC(=O)[C@H](CC(C)C)NC(=O)[C@H](Cc1ccccc1)NC(=O)[C@H](CC(=O)O)NC(=O)[C@H](C)NC(=O)[C@H](CC(C)C)NC(=O)[C@H](CCCNC(=N)N)NC(=O)[C@H](CCC(=O)O)NC(=O)[C@@H](NC(=O)[C@H](C)NC(=O)[C@@H]1CSSC[C@H](NC(=O)[C@H](CCCNC(=N)N)NC(=O)CC[C@H](NC(=O)CCCCCCCCCCCCCCCCCCC(=O)O)C(=O)O)C(=O)N[C@@H](CC(N)=O)C(=O)N[C@@H]([C@@H](C)O)C(=O)N[C@@H](C)C(=O)N[C@@H]([C@@H](C)O)C(=O)N1)[C@@H](C)O [Compound 66, [19CD]-isoGlu-R-C( )-NTAT-C( )-ATERLADFLQRSSF-Gly(Me)-A-Ile(Me)-LSSTEVGSNTP-NH2] ({C20 diacid-γGlu}-RCNTATCATERLADFLQRSSF[Sar]A[NMeI]LSSTEVGSNTP-NH2; disulfide 2-7) |
| 120 pM | 240 pM | CC[C@H](C)[C@@H](C(=O)N[C@@H](CC(C)C)C(=O)N[C@@H](CO)C(=O)N[C@@H](CO)C(=O)N[C@H](C(=O)N[C@@H](CCC(=O)O)C(=O)N[C@H](C(=O)NCC(=O)N[C@@H](CO)C(=O)N[C@H](C(=O)N[C@H](C(=O)N1C[C@H](O)C[C@H]1C(N)=O)[C@@H](C)O)[C@@H](C)O)C(C)C)[C@@H](C)O)N(C)C(=O)[C@H](C)NC(=O)CN(C)C(=O)[C@H](Cc1ccccc1)NC(=O)[C@H](CO)NC(=O)[C@H](CO)NC(=O)[C@H](CCCNC(=N)N)NC(=O)[C@H](CCC(N)=O)NC(=O)[C@H](CC(C)C)NC(=O)[C@H](Cc1ccccc1)NC(=O)[C@H](Cc1c[nH]cn1)NC(=O)[C@H](C)NC(=O)[C@H](CC(C)C)NC(=O)[C@H](CCCNC(=N)N)NC(=O)[C@H](CCC(N)=O)NC(=O)[C@@H](NC(=O)[C@H](C)NC(=O)[C@@H]1CSSC[C@H](NC(=O)[C@H](CCCNC(=N)N)NC(=O)CC[C@H](NC(=O)CCCCCCCCCCCCCCCCCCC(=O)O)C(=O)O)C(=O)N[C@@H](CC(N)=O)C(=O)N[C@@H]([C@@H](C)O)C(=O)N[C@@H](C)C(=O)N[C@@H]([C@@H](C)O)C(=O)N1)[C@@H](C)O [Compound 73, [19CD]-isoGlu-R-C( )-NTAT-C( )-ATQRLAHFLQRSSF-Gly(Me)-A-Ile(Me)-LSSTEVGSTT-Hyp-NH2] ({C20 diacid-γGlu}-RCNTATCATQRLAHFLQRSSF[Sar]A[NMeI]LSSTEVGSTT[Hyp]-NH2; disulfide 2-7) |
